According to PubChem BioAssay (NCI):
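Compound exposure: 48 hours, 5 concentrations, 96-well plates. GI50 = concentration required for 50% inhibition of growth. TGI marks complete inhibition of growth.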

Legend:
Experiment in all cases: NCI-60 cell line screen, 48 h
786-0 renal = test system: 786-0 renal
A549 NSCLC = test system: A549 NSCLC
ACHN renal = test system: ACHN renal
CAKI-1 renal = test system: CAKI-1 renal
COLO 205 colon = test system: COLO 205 colon
DU-145 prostate = test system: DU-145 prostate
EKVX NSCLC = test system: EKVX NSCLC
HCC-2998 colon = test system: HCC-2998 colon
HCT-116 colon = test system: HCT-116 colon
HCT-15 colon = test system: HCT-15 colon
HOP-62 NSCLC = test system: HOP-62 NSCLC
HOP-92 NSCLC = test system: HOP-92 NSCLC
HS 578T breast = test system: HS 578T breast
HT29 colon = test system: HT29 colon
IGROV1 ovarian = test system: IGROV1 ovarian
KM12 colon = test system: KM12 colon
LOX IMVI melanoma = test system: LOX IMVI melanoma
M14 melanoma = test system: M14 melanoma
MALME-3M melanoma = test system: MALME-3M melanoma
MCF7 breast = test system: MCF7 breast
MDA-MB-231 breast = test system: MDA-MB-231 breast
MDA-MB-435 = test system: MDA-MB-435
MOLT-4 leukemia = test system: MOLT-4 leukemia
NCI-H226 lung = test system: NCI-H226 lung
NCI-H23 lung = test system: NCI-H23 lung
NCI-H460 lung = test system: NCI-H460 lung
NCI/ADR-RES ovarian = test system: NCI/ADR-RES ovarian
OVCAR-3 ovarian = test system: OVCAR-3 ovarian
OVCAR-4 ovarian = test system: OVCAR-4 ovarian
OVCAR-5 ovarian = test system: OVCAR-5 ovarian
OVCAR-8 ovarian = test system: OVCAR-8 ovarian
PC-3 prostate = test system: PC-3 prostate
RPMI-8226 leukemia = test system: RPMI-8226 leukemia
RXF 393 renal = test system: RXF 393 renal
SF-268 CNS = test system: SF-268 CNS
SF-295 CNS = test system: SF-295 CNS
SF-539 CNS = test system: SF-539 CNS
SK-MEL-2 melanoma = test system: SK-MEL-2 melanoma
SK-MEL-28 melanoma = test system: SK-MEL-28 melanoma
SK-MEL-5 melanoma = test system: SK-MEL-5 melanoma
SK-OV-3 ovarian = test system: SK-OV-3 ovarian
SN12C renal = test system: SN12C renal
SNB-19 CNS = test system: SNB-19 CNS
SNB-75 CNS = test system: SNB-75 CNS
SW-620 colon = test system: SW-620 colon
T-47D breast = test system: T-47D breast
TK-10 renal = test system: TK-10 renal
U251 CNS = test system: U251 CNS
UACC-257 melanoma = test system: UACC-257 melanoma
UACC-62 melanoma = test system: UACC-62 melanoma
UO-31 renal = test system: UO-31 renal
A498 renal = test system: A498 renal
BT-549 breast = test system: BT-549 breast
CCRF-CEM leukemia = test system: CCRF-CEM leukemia
HL-60(TB) leukemia = test system: HL-60(TB) leukemia
K-562 leukemia = test system: K-562 leukemia
NCI-H522 lung = test system: NCI-H522 lung
SR leukemia = test system: SR leukemia

## C=C1N(C=O)C(C)(C)N(O)C1(C)C
786-0 renal
  TGI: > 100 µM
A549 NSCLC
  TGI: > 100 µM
ACHN renal
  TGI: > 100 µM
CAKI-1 renal
  TGI: > 100 µM
COLO 205 colon
  TGI: > 100 µM
DU-145 prostate
  TGI: > 100 µM
EKVX NSCLC
  TGI: > 100 µM
HCC-2998 colon
  TGI: > 100 µM
HCT-116 colon
  TGI: > 100 µM
HCT-15 colon
  TGI: > 100 µM
HOP-62 NSCLC
  TGI: > 100 µM
HOP-92 NSCLC
  TGI: > 100 µM
HS 578T breast
  TGI: > 100 µM
HT29 colon
  TGI: > 100 µM
IGROV1 ovarian
  TGI: > 100 µM
KM12 colon
  TGI: > 100 µM
LOX IMVI melanoma
  TGI: > 100 µM
M14 melanoma
  TGI: > 100 µM
MALME-3M melanoma
  TGI: > 100 µM
MCF7 breast
  TGI: > 100 µM
MDA-MB-231 breast
  TGI: > 100 µM
MDA-MB-435
  TGI: > 100 µM
MOLT-4 leukemia
  TGI: 84.4 µM
NCI-H226 lung
  TGI: > 100 µM
NCI-H23 lung
  TGI: > 100 µM
NCI-H460 lung
  TGI: > 100 µM
NCI/ADR-RES ovarian
  TGI: > 100 µM
OVCAR-3 ovarian
  TGI: > 100 µM
OVCAR-4 ovarian
  TGI: > 100 µM
OVCAR-5 ovarian
  TGI: > 100 µM
OVCAR-8 ovarian
  TGI: > 100 µM
PC-3 prostate
  TGI: > 100 µM
RPMI-8226 leukemia
  TGI: > 100 µM
RXF 393 renal
  TGI: > 100 µM
SF-268 CNS
  TGI: > 100 µM
SF-295 CNS
  TGI: > 100 µM
SF-539 CNS
  TGI: > 100 µM
SK-MEL-2 melanoma
  TGI: > 100 µM
SK-MEL-28 melanoma
  TGI: > 100 µM
SK-MEL-5 melanoma
  TGI: > 100 µM
SK-OV-3 ovarian
  TGI: > 100 µM
SN12C renal
  TGI: > 100 µM
SNB-19 CNS
  TGI: > 100 µM
SNB-75 CNS
  TGI: > 100 µM
SW-620 colon
  TGI: > 100 µM
T-47D breast
  TGI: > 100 µM
TK-10 renal
  TGI: > 100 µM
U251 CNS
  TGI: > 100 µM
UACC-257 melanoma
  TGI: > 100 µM
UACC-62 melanoma
  TGI: > 100 µM
UO-31 renal
  TGI: > 100 µM

## NC(=O)c1cc2c3ccccc3ccn2c1-c1ccccc1
786-0 renal
  GI50: 0.0775 µM
  TGI: 13.6 µM
A498 renal
  GI50: 0.0468 µM
  TGI: 7.42 µM
A549 NSCLC
  GI50: 0.0969 µM
  TGI: 9.82 µM
ACHN renal
  GI50: 3.17 µM
  TGI: 30.5 µM
BT-549 breast
  GI50: 0.485 µM
  TGI: 13.1 µM
CAKI-1 renal
  GI50: 0.143 µM
  TGI: 3.54 µM
CCRF-CEM leukemia
  GI50: 0.0425 µM
  TGI: 13.8 µM
COLO 205 colon
  GI50: 0.454 µM
  TGI: 2.31 µM
DU-145 prostate
  GI50: 0.0719 µM
  TGI: 2.54 µM
EKVX NSCLC
  GI50: 0.396 µM
  TGI: 45.3 µM
HCC-2998 colon
  GI50: 0.542 µM
  TGI: 9.55 µM
HCT-116 colon
  GI50: 0.0428 µM
  TGI: 4.22 µM
HCT-15 colon
  GI50: 0.0543 µM
  TGI: 11.9 µM
HL-60(TB) leukemia
  GI50: 0.242 µM
  TGI: 2.96 µM
HOP-62 NSCLC
  GI50: 0.446 µM
  TGI: 18.8 µM
HOP-92 NSCLC
  GI50: 0.0179 µM
  TGI: 7.77 µM
HS 578T breast
  GI50: 0.0632 µM
  TGI: 62.6 µM
HT29 colon
  GI50: 0.412 µM
  TGI: 9.12 µM
IGROV1 ovarian
  GI50: 0.141 µM
  TGI: 33.4 µM
K-562 leukemia
  GI50: 0.12 µM
  TGI: 11.8 µM
KM12 colon
  GI50: 0.0396 µM
  TGI: 3.88 µM
LOX IMVI melanoma
  GI50: 0.0912 µM
  TGI: 16.2 µM
M14 melanoma
  GI50: 0.0706 µM
  TGI: 17.7 µM
MALME-3M melanoma
  GI50: 16.7 µM
  TGI: 47.9 µM
MCF7 breast
  GI50: 0.0597 µM
  TGI: 13.5 µM
MDA-MB-231 breast
  GI50: 0.662 µM
  TGI: 17.5 µM
MDA-MB-435
  TGI: > 100 µM
MOLT-4 leukemia
  GI50: 0.521 µM
  TGI: 15.9 µM
NCI-H226 lung
  GI50: 0.627 µM
  TGI: 25.7 µM
NCI-H23 lung
  GI50: 0.319 µM
  TGI: 14.4 µM
NCI-H460 lung
  GI50: 0.042 µM
  TGI: 10.5 µM
NCI-H522 lung
  GI50: 0.0666 µM
  TGI: 20.8 µM
NCI/ADR-RES ovarian
  GI50: 0.0317 µM
  TGI: 0.0919 µM
OVCAR-3 ovarian
  GI50: 0.0272 µM
  TGI: 0.072 µM
OVCAR-4 ovarian
  GI50: 0.155 µM
  TGI: > 54.5 µM
OVCAR-5 ovarian
  GI50: 5.6 µM
  TGI: 36.7 µM
OVCAR-8 ovarian
  GI50: 0.0937 µM
  TGI: 16.4 µM
PC-3 prostate
  GI50: 0.0371 µM
  TGI: 12.6 µM
RPMI-8226 leukemia
  GI50: 0.0371 µM
  TGI: 2.31 µM
RXF 393 renal
  GI50: 0.0462 µM
  TGI: 2.26 µM
SF-268 CNS
  GI50: 0.0759 µM
  TGI: 13.4 µM
SF-295 CNS
  GI50: 0.0304 µM
  TGI: 1.05 µM
SF-539 CNS
  GI50: 0.0248 µM
  TGI: 0.0716 µM
SK-MEL-2 melanoma
  GI50: 0.883 µM
  TGI: 40.9 µM
SK-MEL-28 melanoma
  GI50: 14.7 µM
  TGI: 34.5 µM
SK-MEL-5 melanoma
  GI50: 0.0392 µM
  TGI: 3.14 µM
SK-OV-3 ovarian
  GI50: 0.0503 µM
  TGI: 12.7 µM
SN12C renal
  GI50: 0.0889 µM
  TGI: 15.2 µM
SNB-19 CNS
  GI50: 0.0727 µM
  TGI: 22.1 µM
SNB-75 CNS
  GI50: 0.758 µM
  TGI: > 46.9 µM
SR leukemia
  GI50: 0.0933 µM
  TGI: 3.75 µM
SW-620 colon
  GI50: 0.0357 µM
  TGI: 25 µM
TK-10 renal
  GI50: 0.719 µM
  TGI: 24 µM
U251 CNS
  GI50: 0.0475 µM
  TGI: 14.2 µM
UACC-257 melanoma
  GI50: 11.5 µM
  TGI: 26.5 µM
UACC-62 melanoma
  GI50: 0.0385 µM
  TGI: > 41.7 µM
UO-31 renal
  GI50: 0.708 µM
  TGI: 26.3 µM

## CCCCCCCCCCCCCCCCCC1=NCCN1C(=O)OCCO
A498 renal
  GI50: 9.29 µM
  TGI: 56.7 µM
BT-549 breast
  GI50: 3.19 µM
  TGI: 18.3 µM
CAKI-1 renal
  GI50: 1.75 µM
  TGI: 3.83 µM
DU-145 prostate
  GI50: 1.84 µM
  TGI: 3.37 µM
EKVX NSCLC
  GI50: 1.75 µM
  TGI: 4.24 µM
HS 578T breast
  GI50: 4.08 µM
  TGI: > 100 µM
MALME-3M melanoma
  GI50: 12.9 µM
  TGI: 42.9 µM
NCI-H226 lung
  GI50: 6.24 µM
  TGI: 45.2 µM
NCI-H23 lung
  GI50: 5.64 µM
  TGI: > 100 µM
OVCAR-5 ovarian
  GI50: 3.35 µM
  TGI: 26.4 µM
SK-MEL-28 melanoma
  GI50: 5.92 µM
  TGI: 24.5 µM
SK-MEL-5 melanoma
  GI50: 2.93 µM
  TGI: 10.3 µM
SK-OV-3 ovarian
  GI50: 2.5 µM
  TGI: 7.04 µM
SNB-19 CNS
  GI50: 3.39 µM
  TGI: 12.9 µM
T-47D breast
  GI50: 2.89 µM
  TGI: 9.48 µM
UACC-257 melanoma
  GI50: 2.28 µM
  TGI: 5.68 µM
UACC-62 melanoma
  GI50: 1.87 µM
  TGI: 3.46 µM
